Measurements from patent US12214008B2, “Protein interfaces” (SyntheX, Inc., priority 2016, dated 2025).

Experiments:
A549 xenograft = test: athymic mouse A549 xenograft model; type: in vivo, mice
Description: Female athymic nu/nu mice (6-8 weeks old) were purchased from Simonsen labs (n=12) and were housed at the Murigenics vivarium in Vallejo. The mice were acclimated to the setting of the vivarium for 5 days and maintained on a standard chow diet; 12:12 dark/light cycle; and group housed (3 mice per cage) in hepa-filtered cages. After acclimation, each mouse was injected subcutaneously (lower left abdominal flank) with 5×10^6 A549 (ATCC: CCL-185) cells mixed with 1:1 (v/v) with Matrigel solution. When the tumors reached a volume of ˜100 mm3, the mice were divided into separate treatment groups for the desired treatments. Experiments using both intra-tumoral (IT) and intraperitoneal (IP) administration were performed and the data are reported in FIG. 19.
Mice prepared as described above were divided into 4 groups: • Group 1: were not treated with anything (n=3) • Group 2: received an intra-tumoral injection of 50 microliters of Phosphate Buffered Saline (mock) (n=3) • Group 3: received an intra-tumoral injection of 50 microliters of 10 mg/ml compound 10 in Phosphate Buffered Saline (n=3) • Group 4: received an intra-tumoral injection of 50 microliters of 20 mg/ml compound 10 in Phosphate Buffered Saline (n=3)
The 50 microliter injections were carried out with a (30 g needle). The injections were administered on day zero and then again on day 3. The length (L) and the width (W) of the tumor mass was measured with a Vernier caliper and the tumor volume (V) was calculated as V=(L×W^2)/2. The relative tumor volume of each tumor mass on each measurement day was normalized against the initial volume of the same mass on day zero right before initiation of injections. […]
The injections were carried out with a 30 g needle. […] The length (L) and the width (W) of the tumor mass was measured with a Vernier caliper and the tumor volume (V) was calculated as V=(L×W^2)/2. […]

SSP-25 cells = test: xCELLigence cell death assay; type: cell-based; details: 10 μM compound 10 alone
Description: Further, singly-dosed cells continued to recover, which indicated reduced general cytotoxicity of the compound in the media or the lysed cells.
(§1) To optimize cellular activity, compounds were tested in xCELLigence cell death assays against various cell lines. An example of the workflow used is shown using A549 cells and compound 10 in FIGS. 15 and 16. […] Data from xCELLigence traces at different compound concentrations from FIG. 15 was then used to generate a dose-response curve, which was then subjected to nonlinear regression using a sigmoidal dose-response model to generate IC50s and R2 values for cell death for each compound/cell line combination (FIG. 16).
To further investigate the hypothesis that peptide binding to RAD51 in cells causes cell death via increases in intracellular free calcium levels, compound 10 alone and in combination with two different intracellular calcium chelators (1,2-Bis(2-aminophenoxy) ethane-N,N,N′,N′-tetraacetic acid tetrakis(acetoxymethyl ester) aka “BAPTA-AM”, and ammoniated ruthenium oxychloride aka “ruthenium red”) was tested in an xCELLigence™ cell death assay as in Example 3. The intracellular calcium chelators alone were also evaluated on the cells.

RAD51 = biological target: T1, RAD51 (Homo sapiens, UniProt Q06609); test: microscale thermophoresis; type: binding
T1 sequence (Q06609 1-339): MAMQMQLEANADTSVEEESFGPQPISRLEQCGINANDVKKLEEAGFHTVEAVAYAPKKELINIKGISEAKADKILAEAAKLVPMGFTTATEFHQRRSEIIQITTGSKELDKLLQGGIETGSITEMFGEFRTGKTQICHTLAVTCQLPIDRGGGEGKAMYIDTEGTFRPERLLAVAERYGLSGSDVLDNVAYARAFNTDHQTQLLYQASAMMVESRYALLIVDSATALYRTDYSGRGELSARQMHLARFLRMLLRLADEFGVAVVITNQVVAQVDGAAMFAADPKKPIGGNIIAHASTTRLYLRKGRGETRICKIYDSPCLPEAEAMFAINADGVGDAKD
Description: To test the interaction between calcium binding and peptide binding to RAD51, the Kds of active (Compound 5, 10) peptides for RAD51 were tested by a microscale thermophoresis assay, and the Kd of compound 5 was additionally performed in the presence of 1 mM calcium.
Microscale thermophoresis was performed as previously described (see, for e.g. Jerabek-Willemsen, M., Wienken, C. J., Braun, D., Baaske, P. & Duhr, S. Molecular interaction studies using microscale thermophoresis. Assay Drug Dev. Technol. 9, 342-353 (2011)). The affinity of the Compound was measured using the Monolith NT.115 from Nanotemper Technologies. Rad51 was fluorescently labelled according to the manufacturer's protocol and the labelled protein used for each assay was about 500 nM. A solution of unlabelled peptide was diluted for appropriate serial concentration gradient. The samples were loaded into silica capillaries (Polymicro Technologies). Measurements were performed at room temperature in buffer containing PBS, 0.1% Tween 20, 0.5 mM ATP, 2.5 uM ssDNA, with 1 mM CaCl2 (when mentioned). Measurements were done using 12% LED power and 60% MST power. The assays were repeated three times for each affinity measurement. Data analyses were performed using Nanotemper Analysis software and OriginPro 8.0 software provided by the manufacturer.

A549 cells = test: xCELLigence cell death assay; type: cell-based; details: FIG. 15
Description: as §1

In the case of `CSCC[C@@H](NC(=O)[C@@H](CC(C)C)NC(C)=O)C(=O)N[C@H](CCCNC(=N)N)C(=O)N[C@H](CO)C(=O)N[C@@H](C(=O)N[C@H](CCCNC(=N)N)C(=O)N[C@H](CC(C)C)C(=O)N[C@H](CCCNC(=N)N)C(=O)N[C@@H](C(=O)NCC(=O)N[C@H](CC(C)C)C(=O)N[C@H](CCCNC(=N)N)C(=O)N[C@H](CCCCN)C(=O)N[C@H](CCCNC(=N)N)C(=O)N[C@H](CCCNC(=N)N)C(=O)N[C@H](CCCNC(=N)N)C(=O)N[C@H](CCCNC(=N)N)C(=O)N[C@H](CCCNC(=N)N)C(=O)N[C@H](CCCNC(=N)N)C(=O)N[C@H](CCCNC(=N)N)C(N)=O)C(C)C)C(C)C` [Compound 10, Ac-lmrsvrlrvGlrkrrrrrrr-NH2], the “relative tumor volume, intra-tumoral dosing” value (A549 xenograft; 50 microliters of 10 or 20 mg/ml intra-tumoral on day 0 and day 3, measured days 0, 3, 6) is reported as “measurable decreases in tumor size as early as day 3”, the “relative tumor volume, intra-peritoneal dosing” value (A549 xenograft; 125 microliters of 3 mg/ml intra-peritoneal on day 7, measured days 0-10) is reported as “measurable decreases in tumor size as early as 3 days after injection (day 10)” and the tumor volume (A549 xenograft; FIG. 19, intratumoral and intraperitoneal) is reported as “significant effects on tumor volume after only a few days of treatment”. For the same molecule, the “cell death of SSP-25 cells, compound alone” value (SSP-25 cells) was “significant cell death”, the Kd (RAD51; PBS) was 8.55 nM and the Kd (RAD51; without added calcium) was ~8 nM. For the same molecule, the “cell killing of A549 cells (cell index)” value (A549 cells) was “cell killing of A549 cells”.
